Source: publication PMC6452631 (Journal of medicinal chemistry, 2017)
Peptide text beside a SMILES is read from it. * marks the point of attachment. Cbz = O=C(OCc1ccccc1)*; Acryloyl = C=CC(=O)*

Legend:
gplTG2 = settings: cited from earlier work; for K1 values: gplTG2, in words
hTG2 [1] = target: T1, hTG2 (Homo sapiens, UniProt P21980); assay: Colorimetric transamidase activity assay
T1 sequence (P21980 1-687): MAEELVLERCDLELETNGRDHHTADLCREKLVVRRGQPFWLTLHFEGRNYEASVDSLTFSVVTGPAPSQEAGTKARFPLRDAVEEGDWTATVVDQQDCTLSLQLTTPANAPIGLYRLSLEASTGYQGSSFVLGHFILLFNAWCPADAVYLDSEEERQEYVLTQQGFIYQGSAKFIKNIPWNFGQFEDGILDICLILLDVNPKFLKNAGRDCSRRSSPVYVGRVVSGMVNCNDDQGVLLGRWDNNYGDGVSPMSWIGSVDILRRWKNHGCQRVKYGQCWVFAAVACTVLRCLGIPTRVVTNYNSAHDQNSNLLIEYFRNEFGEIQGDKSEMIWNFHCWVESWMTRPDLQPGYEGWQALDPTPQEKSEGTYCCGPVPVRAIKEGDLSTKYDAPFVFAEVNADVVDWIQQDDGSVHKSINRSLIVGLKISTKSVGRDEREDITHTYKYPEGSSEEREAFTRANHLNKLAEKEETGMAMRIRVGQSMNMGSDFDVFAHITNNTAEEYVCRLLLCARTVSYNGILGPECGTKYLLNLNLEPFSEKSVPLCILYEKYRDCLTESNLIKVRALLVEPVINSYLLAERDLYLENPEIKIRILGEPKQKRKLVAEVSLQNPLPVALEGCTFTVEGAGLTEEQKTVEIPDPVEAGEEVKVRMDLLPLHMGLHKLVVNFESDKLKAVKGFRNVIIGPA

[2] = system: mouse xenograft tumors initiated by injection of cancer stem cells; settings: intraperitoneal injection, 20 mg/kg; cited from earlier work
[3] = system: epidermal cancer stem (ECS) cells; settings: cited from earlier work
[4] = system: epidermal cancer stem (ECS) cells (SCC-13); assay: Cell invasion assay; assay type: cell-based, human
hTG2 [5] = target: T1, hTG2; assay: In vitro GTP binding assay; settings: inhibitor at 2KI, 30 min, 25 °C; 3 μM BODIPY GTP-γ-S
hTG2 [6] = target: T1, hTG2; assay: Inhibition irreversibility; assay type: biochemical; settings: compared to uninhibited hTG2
hTG2 [7] = target: T1, hTG2; settings: pH 6.5

SMILES: C=CC(=O)NCCCC[C@H](NC(=O)OCc1ccccc1)C(=O)O [Compound 1, (S)-6-Acrylamido-2-(((benzyloxy)carbonyl)amino)hexanoic Acid]
- K1 values (gplTG2): high nanomolar range

SMILES: C=CC(=O)NCCCC[C@H](NC(=O)OCc1ccccc1)C(=O)NCC(=O)O [Compound 2, (S)-2-(6-Acrylamido-2-(((benzyloxy)carbonyl)amino)-hexanamido)acetic Acid] (Cbz-Lys(Acryloyl)-Gly-OH)
- K1 values (gplTG2): high nanomolar range
- efficiency constants (kinact/KI) (gplTG2; gplTG2): 10^6 M^−1 min^−1

SMILES: C=CC(=O)NCCCC[C@H](NC(=O)OCc1ccccc1)C(=O)NCCOCCOCCNS(=O)(=O)c1cccc2c(N(C)C)cccc12 [Compound 3, (S)-Benzyl-(1-((5-(dimethylamino)naphthalene)-1-sulfonamido)-10,17-dioxo-3,6-dioxa-9,16-diazanonadec-18-en-11-yl)carbamate]
- increase in overall efficiency (kinact/KI), hTG2 versus gplTG2 (hTG2 [1]; hTG2 compared to gplTG2): 5 fold
- growth of mouse xenograft tumors [2]: reduced the growth
- kinact (gplTG2; gplTG2): 0.483 min⁻¹
- ECS cell proliferation and survival ([3]; 20 μM): reduced ECS cell proliferation and survival
- effect in TG2 knockout ECS cells ([3]; TG2 knockout ECS cells): no effect
- EC50 ([4]; Homo sapiens, SCC-13, 18 h, read-out: EC50, inhibition of ECS cell invasion): > 20 µM

SMILES: C=CC(=O)NCCCC[C@H](NC(=O)OCc1ccccc1)C(N)=O [Compound 4, (S)-Benzyl-(6-acrylamido-1-amino-1-oxohexan-2-yl)carbamate]
- GTP binding ability of hTG2 after incubation with inhibitor (hTG2 [5]): able to abolish GTP binding

SMILES: C=CC(=O)NCCCC[C@H](NC(=O)OCc1ccccc1)C(=O)N1CCN(S(=O)(=O)c2cccc3c(N(C)C)cccc23)CC1 [Compound 13, (S)-Benzyl (6-Acrylamido-1-(4-((5-(dimethylamino)naphthalen-1-yl)sulfonyl)piperazin-1-yl)-1-oxohexan-2-yl)carbamate]
- recovered hTG2 activity after filtration (10 kDa cutoff) and dilution (hTG2 [6]): no recovered activity
- kinact/KI (hTG2 [1]): > 1670 M⁻¹ s⁻¹
- reduction in the inhibition binding constant compared to 3 (hTG2 [1]; hTG2): greater than 2 fold
- GTP binding ability of hTG2 after incubation with inhibitor (hTG2 [5]): abolishing GTP binding nearly completely
- Hill slope ([4]; three-parameter sigmoidal fit of invasion data, maximum fixed at 100): 1.16 ± 0.13

SMILES: C=CC(=O)NCCCC[C@H](NC(=O)OCc1ccccc1)C(=O)N1CCN(S(=O)(=O)c2cccc3ccccc23)CC1 [Compound 30, (S)-Benzyl 6-Acrylamido-1-(4-(naphthalen-1-ylsulfonyl)piperazin-1-yl)-1-oxohexan-2-yl-carbamate]
- kinact less than that of 13 (hTG2 [1]; hTG2): more than 3 fold

SMILES: C=CC(=O)NCCCC[C@H](NC(=O)OCc1ccccc1)C(=O)N1CCN(C(=O)c2cccc3ccccc23)CC1 [Compound 49, (S)-Benzyl (1-(4-(1-Naphthoyl)piperazin-1-yl)-6-acrylamido-1-ox-ohexan-2-yl)carbamate]
- kinact/KI (hTG2 [1]): > 1670 M⁻¹ s⁻¹
- GTP binding ability of hTG2 after incubation with inhibitor (hTG2 [5]): abolishing GTP binding nearly completely

SMILES: C=CC(=O)NCCCC[C@H](NC(=O)OCc1ccccc1)C(=O)N1CCOCC1 [Compound 59]
- kinact (hTG2 [7]): 0.0245 s⁻¹

SMILES: NC(=O)CI [iodoacetamide, reference compound]
- inhibition of hTG2 acyltransferase activity (hTG2 [1]; in words): irreversible inhibition
- GTP binding ability of hTG2 after incubation with inhibitor (hTG2 [5]): did not perturb its GTP-binding ability
